Experimental data published in patent US7273848B2, “Apolipoprotein A-I agonists and their use to treat dyslipidemic disorders” (priority 1997, dated 2007).
No end group written: not given here.

Experiment: Superose 6 gel filtration chromatography of peptide-lipid complexes
Type: physicochemical
Conditions: peptide/DPPC complexes, 1 mg peptide and 3 mgs DPPC, colyophilized, in 0.9% NaCl
Experimental: An aliquot of the resulting reconstituted preparation can be characterized to confirm that the complexes in the preparation have the desired size distribution; e.g., the size distribution of HDL. Gel filtration chromatography can be used to this end. In the working examples described infra, a Pharmacia Superose 6 FPLC gel filtration chromatography system was used. The buffer used contains 150 mM NaCl in 50 mM phosphate buffer, pH 7.4. A typical sample volume is 20 to 200 microliters of complexes containing 5 mgs peptide/ml. The column flow rate is 0.5 mls/min. A series of proteins of known molecular weight and Stokes' diameter as well as human HDL are used as standards to calibrate the column. The proteins and lipoprotein complexes are monitored by absorbance or scattering of light of wavelength 254 or 280 nm.
Peptide-phospholipid complexes containing peptide 149 (SEQ ID NO:149) were prepared by colyophilization as described above. The preparation contained 1 mg peptide and 3 mgs DPPC by weight. […] The chromatography was monitored by absorbance or scattering of light of wavelength 280 nm. […] The vast majority of both phospholipid and UV absorbance were recovered together in a few fractions with peaks at approximately 15.8 mls. […]

- Stokes' diameter: 87 Angstroms
Sequence: PVLELFENLWERLLDALQKKLK [peptide 149]
